This series has as its system CCRIS mutagenicity, Ames/micronucleus/aberration tests. Briefly: CCRIS mutagenicity studies.
Setting [1] is: Test System: AMES SALMONELLA TYPHIMURIUM, Strain/Indicator: TA98, Metabolic Activation: HAMSTER, LIVER, S-9, AROCLOR 1254, Method: PREINCUBATION
Setting [2] is: Test System: AMES SALMONELLA TYPHIMURIUM, Strain/Indicator: TA98, Metabolic Activation: NONE, Method: PREINCUBATION
Setting [3] is: Test System: AMES SALMONELLA TYPHIMURIUM, Strain/Indicator: TA98, Metabolic Activation: RAT, LIVER, S-9, AROCLOR 1254, Method: PREINCUBATION
The mark [4] stands for this setting: Test System: AMES SALMONELLA TYPHIMURIUM, Strain/Indicator: TA100, Metabolic Activation: HAMSTER, LIVER, S-9, AROCLOR 1254, Method: PREINCUBATION
The mark [5] stands for this setting: Test System: AMES SALMONELLA TYPHIMURIUM, Strain/Indicator: TA100, Metabolic Activation: NONE, Method: PREINCUBATION
The mark [6] stands for this setting: Test System: AMES SALMONELLA TYPHIMURIUM, Strain/Indicator: TA100, Metabolic Activation: RAT, LIVER, S-9, AROCLOR 1254, Method: PREINCUBATION
Setting [7] is: Test System: AMES SALMONELLA TYPHIMURIUM, Strain/Indicator: TA1535, Metabolic Activation: HAMSTER, LIVER, S-9, AROCLOR 1254, Method: PREINCUBATION
Where [8] appears, read: Test System: AMES SALMONELLA TYPHIMURIUM, Strain/Indicator: TA1535, Metabolic Activation: NONE, Method: PREINCUBATION
Where [9] appears, read: Test System: AMES SALMONELLA TYPHIMURIUM, Strain/Indicator: TA1535, Metabolic Activation: RAT, LIVER, S-9, AROCLOR 1254, Method: PREINCUBATION
The mark [10] stands for this setting: Test System: AMES SALMONELLA TYPHIMURIUM, Strain/Indicator: TA1537, Metabolic Activation: HAMSTER, LIVER, S-9, AROCLOR 1254, Method: PREINCUBATION
Setting [11] is: Test System: AMES SALMONELLA TYPHIMURIUM, Strain/Indicator: TA1537, Metabolic Activation: NONE, Method: PREINCUBATION
Setting [12] is: Test System: AMES SALMONELLA TYPHIMURIUM, Strain/Indicator: TA1537, Metabolic Activation: RAT, LIVER, S-9, AROCLOR 1254, Method: PREINCUBATION

Here are results for three compounds from PubChem BioAssay AID1259407 (Chemical Carcinogenesis Research Information System (CCRIS), 2018).

Molecules are shown by their SMILES. The source made the active and inactive calls. No rule for the calls is given here.

With `Oc1ccccc1O`, the mutagenic call was “active; positive at ph 7.4 and 8.0” (End Point: IN VITRO CHROMOSOMAL ABERRATIONS, Test System: CHINESE HAMSTER V79 CELLS, Metabolic Activation: NONE); “active; positive” (End Point: IN VITRO MICRONUCLEUS, Test System: CHINESE HAMSTER LUNG (CHL)/IU CELLS, Metabolic Activation: NONE); “inactive; negative” (Test System: AMES SALMONELLA TYPHIMURIUM, Strain/Indicator: TA97, Metabolic Activation: NONE, Method: PREINCUBATION); “inactive; negative” (Test System: AMES SALMONELLA TYPHIMURIUM, Strain/Indicator: TA97, Metabolic Activation: RAT, LIVER, S-9, AROCLOR 1254, Method: PREINCUBATION); “inactive; negative” (Test System: AMES SALMONELLA TYPHIMURIUM, Strain/Indicator: TA97, Metabolic Activation: RAT, LIVER, S-9, PHENOBARBITAL, Method: PREINCUBATION); “inactive; negative” under setting [1]. The mutagenic call by setting is: (Test System: AMES SALMONELLA TYPHIMURIUM, Strain/Indicator: TA98, Metabolic Activation: NONE) “inactive; negative”; under setting [2], “inactive; negative”; under setting [3], “inactive; negative”; (Test System: AMES SALMONELLA TYPHIMURIUM, Strain/Indicator: TA98, Metabolic Activation: RAT, LIVER, S-9, PHENOBARBITAL, Method: PREINCUBATION) “inactive; negative”; (Test System: AMES SALMONELLA TYPHIMURIUM, Strain/Indicator: TA98, Metabolic Activation: S-9) “inactive; negative”; under setting [4], “inactive; negative”. The mutagenic call reads like this: (Test System: AMES SALMONELLA TYPHIMURIUM, Strain/Indicator: TA100, Metabolic Activation: NONE, Method: FLUCTUATION TEST) “active; positive”; under setting [5], “inactive; negative”; under setting [6], “inactive; negative”; (Test System: AMES SALMONELLA TYPHIMURIUM, Strain/Indicator: TA100, Metabolic Activation: RAT, LIVER, S-9, PCB, Method: FLUCTUATION TEST) “active; positive”; (Test System: AMES SALMONELLA TYPHIMURIUM, Strain/Indicator: TA100, Metabolic Activation: RAT, LIVER, S-9, PHENOBARBITAL, Method: PREINCUBATION) “inactive; negative”; (Test System: AMES SALMONELLA TYPHIMURIUM, Strain/Indicator: TA102, Metabolic Activation: NONE, Method: PREINCUBATION) “inactive; negative”. For the same compound, the mutagenic call (Test System: AMES SALMONELLA TYPHIMURIUM, Strain/Indicator: TA102, Metabolic Activation: RAT, LIVER, S-9, AROCLOR 1254, Method: PREINCUBATION) is “inactive; negative”; the mutagenic call (Test System: AMES SALMONELLA TYPHIMURIUM, Strain/Indicator: TA104, Metabolic Activation: NONE, Method: PREINCUBATION) was “inactive; negative”; the mutagenic call (Test System: AMES SALMONELLA TYPHIMURIUM, Strain/Indicator: TA104, Metabolic Activation: RAT, LIVER, S-9, AROCLOR 1254, Method: PREINCUBATION) is “inactive; negative”; the mutagenic call under setting [7] is “inactive; negative”; the mutagenic call under setting [8] is “inactive; negative”; the mutagenic call under setting [9] was “inactive; negative”. For the same compound, the mutagenic call is, setting by setting: under setting [10], “inactive; negative”; under setting [11], “inactive; negative”; under setting [12], “inactive; negative”; (Test System: Ames Salmonella typhimurium, Strain/Indicator: TA98, Metabolic Activation: None, Method: Preincubation) “inactive; negative”; (Test System: Ames Salmonella typhimurium, Strain/Indicator: TA98, Metabolic Activation: Rat, Liver, S9, Sodium phenobarbital and 5,6-benzoflavone, Method: Preincubation) “inactive; negative”; (Test System: Ames Salmonella typhimurium, Strain/Indicator: TA100, Metabolic Activation: None, Method: Preincubation) “inactive; negative”. Also, the mutagenic call is “inactive; negative” (Test System: Ames Salmonella typhimurium, Strain/Indicator: TA100, Metabolic Activation: Rat, Liver, S9, Sodium phenobarbital and 5,6-benzoflavone, Method: Preincubation); “inactive; negative” (Test System: Ames Salmonella typhimurium, Strain/Indicator: TA1535, Metabolic Activation: None, Method: Preincubation); “inactive; negative” (Test System: Ames Salmonella typhimurium, Strain/Indicator: TA1535, Metabolic Activation: Rat, Liver, S9, Sodium phenobarbital and 5,6-benzoflavone, Method: Preincubation); “inactive; negative” (Test System: Ames Salmonella typhimurium, Strain/Indicator: TA1537, Metabolic Activation: None, Method: Preincubation); “inactive; negative” (Test System: Ames Salmonella typhimurium, Strain/Indicator: TA1537, Metabolic Activation: Rat, Liver, S9, Sodium phenobarbital and 5,6-benzoflavone, Method: Preincubation); “active; positive” (Test System: CHINESE HAMSTER V-79, Strain/Indicator: V-79/6-THIOGUANINE, Metabolic Activation: NONE). Also, the mutagenic call reads like this: (Test System: E. coli, Strain/Indicator: WP2uvrA/pKM101, Metabolic Activation: None, Method: Preincubation) “inactive; negative”; (Test System: E. coli, Strain/Indicator: WP2uvrA/pKM101, Metabolic Activation: Rat, Liver, S9, Sodium phenobarbital and 5,6-benzoflavone, Method: Preincubation) “inactive; negative”; (Test System: E. coli, Strain/Indicator: Wp2uvrA/pKM101, Metabolic Activation: None, Method: Preincubation) “inactive; negative”; (Test System: E. coli, Strain/Indicator: Wp2uvrA/pKM101, Metabolic Activation: Rat, Liver, S9, Sodium phenobarbital and 5,6-benzoflavone, Method: Preincubation) “inactive; negative”; (Test System: MOUSE LYMPHOMA, Strain/Indicator: L5178Y (TK+/TK-), Metabolic Activation: NONE, Method: SUSPENSION/PLATE) “active; positive”; (Test System: UDS SYRIAN HAMSTER EMBRYO (SHE) CELLS, Strain/Indicator: THY INCORP, Metabolic Activation: NONE, Method: LIQUID SCINTILLATION COUNTING) “active; positive”.

For `Cl/C=C\CCl`, the mutagenic call was “active; positive” (Test System: AMES SALMONELLA TYPHIMURIUM, Strain/Indicator: TA100, Metabolic Activation: NONE, Method: STANDARD PLATE); “active; positive” (Test System: AMES SALMONELLA TYPHIMURIUM, Strain/Indicator: TA100, Metabolic Activation: RAT, LIVER, S-9, AROCLOR 1254, Method: STANDARD PLATE); “active; positive” (Test System: AMES SALMONELLA TYPHIMURIUM, Strain/Indicator: TA1535, Metabolic Activation: NONE, Method: STANDARD PLATE); “active; positive” (Test System: AMES SALMONELLA TYPHIMURIUM, Strain/Indicator: TA1535, Metabolic Activation: RAT, LIVER, S-9, AROCLOR 1254, Method: STANDARD PLATE); “active; positive” (Test System: AMES SALMONELLA TYPHIMURIUM, Strain/Indicator: TA1978, Metabolic Activation: NONE, Method: STANDARD PLATE); “active; positive” (Test System: AMES SALMONELLA TYPHIMURIUM, Strain/Indicator: TA1978, Metabolic Activation: RAT, LIVER, S-9, AROCLOR 1254, Method: STANDARD PLATE).

With `ClC(Cl)(Cl)C(Cl)(Cl)Cl`, the mutagenic call runs as follows: (End Point: IN VITRO CHROMOSOMAL ABERRATIONS, Test System: CHINESE HAMSTER OVARY CELLS, Metabolic Activation: RAT, LIVER, S-9, AROCLOR 1254) “inactive; negative; precipitation occurred at all doses”; under setting [1], “inactive; negative”; under setting [2], “inactive; negative”; under setting [3], “inactive; negative”; under setting [4], “inactive; negative”; under setting [5], “inactive; negative”. Besides, the mutagenic call under setting [6] was “inactive; negative”; the mutagenic call under setting [7] was “inactive; negative”; the mutagenic call under setting [8] is “inactive; negative”; the mutagenic call under setting [9] is “inactive; negative”; the mutagenic call under setting [10] is “inactive; negative”; the mutagenic call under setting [11] is “inactive; negative”. The mutagenic call under setting [12] is “inactive; negative”.
